In ChEMBL document CHEMBL1140474, “Enhancement of oral drug absorption-effect of lipid conjugation on the enzymatic stability and intestinal permeability of l-Glu-l-Trp-NH(2)” (Bioorg Med Chem, 2007):
Where a SMILES comes first, the peptide text is derived from it. [ ]: non-standard residue; d: D form. ξ: configuration not given here. ξGly(dodecyl) = CCCCCCCCCCCCC(N)C(=O)O; ξGly(decyl) = CCCCCCCCCCC(N)C(=O)O; ξGly(octyl) = CCCCCCCCC(N)C(=O)O; ξAoc(2) = CCCCCCC(N)C(=O)O

How the values were obtained:
[1] = Apparent permeability across human Caco-2 cells; format: ADME, cell-based
[2] = Stability in human Caco-2 homogenates after 2 hrs; format: ADME; settings: Caco-2 cell homogenates, read-out: Stability
[3] = Stability in human Caco-2 homogenates after 1 hr; format: ADME; settings: Caco-2 cell homogenates, read-out: Stability
Caco-2 [4] = assay: Stability in human Caco-2 homogenates after 10 mins; format: ADME; settings: caco-2, 10 min
Caco-2 [5] = assay: Stability in human Caco-2 homogenates after 20 mins; format: ADME; settings: caco-2, 20 min

SMILES | Papp [1] | remaining at 2 h [2] | remaining at 1 h [3] | Stability (Caco-2 [4]) | Activity (Caco-2 [5])
CCCCCCCCC(N)C(=O)N[C@@H](CCC(=O)O)C(=O)N[C@@H](Cc1c[nH]c2ccccc12)C(N)=O (some centres not stated) | 1.55 ×10⁻⁶ cm/s | 40% | – | – | –
NC(=O)[C@H](Cc1c[nH]c2ccccc12)NC(=O)[C@@H](N)CCC(=O)O (H-Glu-Trp-NH2) | 7.76 ×10⁻⁶ cm/s | 35% | – | – | –
CCCCCCC(NC(=O)[C@@H](N)CCC(=O)O)C(=O)N[C@@H](Cc1c[nH]c2ccccc12)C(N)=O (some centres not stated) (H-Glu-[ξAoc(2)]-Trp-NH2) | 3.83 ×10⁻⁶ cm/s | 40% | – | – | –
CCCCCCC(N)C(=O)N[C@@H](CCC(=O)O)C(=O)N[C@@H](Cc1c[nH]c2ccccc12)C(N)=O (stereo partly drawn) (H-[ξAoc(2)]-Glu-Trp-NH2) | 4.84 ×10⁻⁶ cm/s | 40% | – | – | –
CCCCCCC(N)C(=O)NC(CCCCCC)C(=O)N[C@@H](CCC(=O)O)C(=O)N[C@@H](Cc1c[nH]c2ccccc12)C(N)=O (some centres not stated) (H-[ξAoc(2)][ξAoc(2)]EW-NH2) | 8.32 ×10⁻⁶ cm/s | 90% | – | – | Not Active
CCCCCCCCCCC(N)C(=O)NC(CCCCCCCCCC)C(=O)N[C@@H](CCC(=O)O)C(=O)N[C@@H](Cc1c[nH]c2ccccc12)C(N)=O (some centres not stated) (H-[ξGly(decyl)][ξGly(decyl)]EW-NH2) | 3.09 ×10⁻⁶ cm/s | 90% | – | – | Not Active
CCCCCCCCC(N)C(=O)NC(CCCCCCCC)C(=O)N[C@@H](CCC(=O)O)C(=O)N[C@@H](Cc1c[nH]c2ccccc12)C(N)=O (some centres not stated) (H-[ξGly(octyl)][ξGly(octyl)]EW-NH2) | 1.79 ×10⁻⁶ cm/s | 40% | – | 15% | Not Active

Further lines, results first:

Papp [1] | remaining at 2 h [2] | remaining at 1 h [3] | Stability (Caco-2 [4]) | Activity (Caco-2 [5]) | SMILES
4.66 ×10⁻⁶ cm/s | 40% | – | – | – | CCCCCCCCCCC(NC(=O)[C@@H](N)CCC(=O)O)C(=O)N[C@@H](Cc1c[nH]c2ccccc12)C(N)=O (some centres not stated)
9.26 ×10⁻⁶ cm/s | 65% | 75% | – | – | CCCCCCCCCCC(N)C(=O)N[C@@H](CCC(=O)O)C(=O)N[C@@H](Cc1c[nH]c2ccccc12)C(N)=O (some centres not stated)
1.02 ×10⁻⁶ cm/s | 65% | 75% | – | – | CCCCCCCCCCCCC(N)C(=O)N[C@@H](CCC(=O)O)C(=O)N[C@@H](Cc1c[nH]c2ccccc12)C(N)=O (some centres not stated)
3.99 ×10⁻⁶ cm/s | 40% | – | 15% | – | CCCCCCCCC(NC(=O)[C@@H](N)CCC(=O)O)C(=O)N[C@@H](Cc1c[nH]c2ccccc12)C(N)=O (some centres not stated)
2.77 ×10⁻⁶ cm/s | 90% | – | – | Not Active | CCCCCCCCCCCCC(N)C(=O)NC(CCCCCCCCCCCC)C(=O)N[C@@H](CCC(=O)O)C(=O)N[C@@H](Cc1c[nH]c2ccccc12)C(N)=O (some centres not stated) (H-[ξGly(dodecyl)][ξGly(dodecyl)]EW-NH2)
